Structures can show the parent of a compound that is named as a salt.
Key:
[1] = test system: uPAR mRNA; test: Northern blot analysis of uPAR mRNA in MDA-MB-231 breast carcinoma cells; assay type: cell-based, human
[2] = test system: uPAR protein; test: Western blot analysis of uPAR protein in MDA-MB-231 breast carcinoma cells; assay type: cell-based, human
Procedure: Following incubations, the cells were lysed using a buffer containing 40 mM HEPES pH 7.2, 100 mM NaCl, 20% glycerol, 0.1 mM EDTA pH 8.0, 0.2% Triton X-100, 1 mM DTT, and 2 mM PMSF. The lysates were then subjected to homogenization, DNA shearing (10 times with a 25⅝-gauge needle), boiling (5 minutes) and centrifugation (15 minutes, 14000 g). The supernatant was collected and stored at −80° C. until use. The samples were subjected to SDS-polyacrylamide gel electrophoresis (PAGE) and the resolved proteins were transferred to an Immobilon-P membrane using a wet transfer apparatus (Bio-Rad Laboratories, Mississauga, ON). The membranes were blocked overnight at 4° C. in a solution containing 1% PBS, and 0.01% Tween20 (PBS-T) as well as 5% casein. The blots were subsequently incubated for 1.5 hours with the monoclonal anti-uPAR antibody [MoAb 3937], followed by six 5 minute washes with PBS-T. The membranes were then incubated with a horseradish peroxidase labeled goat anti-mouse IgG secondary antibody for 1.5 hours. Following six additional 5 minute washes with PBS-T, the antigen was detected by enhanced chemiluminescence and the blots were exposed onto Dupont Reflection NEF film.
Following incubation, the cells were lysed using a buffer containing 40 mM HEPES pH 7.2, 100 mM NaCl, 20% glycerol, 0.1 mM EDTA pH 8.0, 0.2% Triton X-100, 1 mM dithiothreitol (DTT), and 2 mM phenylmethyl sulfonyl fluoride (PMSF). The lysates were then subjected to homogenization, DNA shearing (10 times with a 25⅝-gauge needle), boiling (5 minutes) and centrifugation (15 minutes at 14,000×g). The supernatant was collected and stored at −80° C. until use. The samples were subjected to SDS-polyacrylamide gel electrophoresis (PAGE) and the resolved proteins were transferred to an Immobilon-P membrane (Millipore Corp., Bedford, Mass.) using a wet transfer apparatus (BioRad Laboratories, Mississauga, ON). The membranes were blocked overnight at 4° C. in a solution containing 1% PBS, and 0.01% Tween 20 (PBS-T) as well as 5% dry milk powder. The blots were subsequently incubated for 1.5 hours with the monoclonal anti-uPAR (MoAb 3937; American Diagnostica Inc., Greenwich, Conn.), or a polyclonal soluble guanylate cyclase (sGC) antiserum (Cayman Chemical, Ann Arbor, Mich.) followed by six 5-minute washes with PBS-T. Subsequently, the uPAR membranes were incubated for 1 hour with a horseradish peroxidase labelled goat anti-mouse IgG secondary antibody (Bio-Rad, Hercules, Calif.) and the sGC membranes were incubated for 1 hour with a goat anti-rabbit IgG horseradish peroxidase conjugate (VECTOR Laboratories Inc., Burlingame, Calif.). Following six additional 5-minute washes with PBS-T, the antigen was detected by enhanced chemiluminescence (Amersham Canada Inc., Mississauga, ON) and the blots were exposed onto Dupont Reflection NEF film.

[3] = test system: hypoxia-inducible factor-1; conditions: hypoxically cultured Hep3B cells; read-out: IC50 for suppression of the adaptive cellular response controlled by hypoxia-inducible factor-1; cited from earlier work
[4] = test system: MDA-MB-231 breast carcinoma cells; test: In vitro Matrigel invasion assay, MDA-MB-231; assay type: cell-based, human
Procedure: The chambers consist of cell culture inserts, 6.5 mm in diameter and with a 8 μm pore size membrane. Each membrane was coated with 100 μL of a 1 mg/mL solution of Matrigel diluted in cold serum-free culture medium (EX-CELL 300), and allowed to dry in a laminar flow cabinet for approximately 12 hours. The Matrigel was then rehydrated by incubating it with 100 μL of serum-free medium for approximately 1 hour. After rehydration, cell suspensions containing 5.0×10^4 or 1.0×10^5 cells in 100 μL of medium, containing both serum and the nitric oxide treatments, were added to each well. Culture medium containing serum and the respective nitric oxide treatment were then added to each insert. The cells were incubated for 24 hours under either hypoxic (1% O2) or control (20% O2) conditions. Following incubation, the non-invading cells were removed from the upper surface of the membrane by wiping with a cotton swab. The cells on the lower surface of the membrane were fixed for 10 minutes with Carnoy's fixative (25% acetic acid, 75% methanol), and then stained for approximately 3 hours with a 1% toluidine blue, 1% sodium borate solution. Following a rinse in phosphate-buffered saline (PBS), the membrane was removed from the insert housing with a small scalpel blade, mounted onto a microscope slide and coverslipped. Invading cells were then viewed under the microscope at 40× magnification and counted. The invasion index for each treatment was calculated by dividing the number of invading cells by the number of cells which invaded under standard conditions. This value was then multiplied by 100 to obtain a percentage. The standard was given a value of 100% and the treatment values were converted to a percentage of the standard. The results were tested for statistical significance using either the Tukey test for pair-wise multiple comparison procedures or the Student-Newman-Keuls method for pair-wise multiple comparison procedures.
The chambers consisted of 6.5-mm inserts with 8-μm pore membranes (Corning Costar Corp., Cambridge, Mass.). Each membrane was coated with 100 μL of a 2.6 mg/mL solution of Matrigel (Collaborative Biochemical Products, Bedford, Mass.) diluted in cold serum-free medium (EX-CELL 300; JRH Biosciences, Lenexa, Kans.), and allowed to dry in a laminar flow cabinet for approximately 12 hours. The Matrigel was then rehydrated with 100 μL of serum-free medium for approximately 1 hour. […] Invading cells were then viewed under the microscope at 40× magnification and counted. The invasion index for each treatment was calculated by dividing the number of invading cells by the number of cells that invaded under standard (20% oxygen) conditions. Invasion indices were expressed as percentages of control (20% oxygen) values. […]

[5] = concentrations up to 500 μM; cited from earlier work
[6] = test system: Bl6F10 metastatic melanoma cells; test: In vivo experimental metastasis (lung colonization) model; set-up: species or system C57BL6 mice; conditions: cells cultured in 1% O2 with 8-Br-cGMP (1 μM)
Procedure: C57BL6 mice were injected i.v. (tail vein) with a bolus of 5×10^4-10^5 Bl6F10 metastatic melanoma cells. Immediately after the tail vein injection, mice were randomly divided into groups of 15 and mice in each group were placed in plexiglass chambers (approximately 3 L) which were continuously flushed with gas mixtures of 20% O2:balance N2 and 10% O2:balance N2, respectively. […] After a 24 hour exposure to an atmosphere of either 20% O2 or 10% O2, mice were removed from the chambers and placed in regular cages kept at room air. Thirteen days later, mice were sacrificed by cervical dislocation, and lungs were removed and fixed in Bouin's fixative (Sigma). Metastatic nodules (many of which appeared black due to the presence of melanin) on the surface of the lungs were counted visually under a dissecting microscope. Data were expressed as the number of lung nodules per 10^4 cells injected and were analyzed using statistical tests for non-parametric values.
(§1) Cells were then removed from plates with trypsin and 5×10^4 cells were injected i.v. (tail vein) into C57BL6 female mice. Some of the cells treated in vitro were plated onto tissue culture dishes to determine colony-forming ability using the protocol described below in the Section I.J.
(§2) Following harvesting from culture plates, 5×10^4 cells were injected intravenously (tail vein injections) into 5-7 week old C57Bl/6 female mice. Cells were also plated in tissue culture plates to determine the effect of culture conditions on in vitro colony forming ability. Fourteen days after intravenous inoculation, mice were sacrificed and their lungs were removed and fixed in Bouin's fixative. Both melanotic and amelanotic metastatic colonies were counted under a dissecting microscope. Data were expressed as the number of lung nodules per 5×10^4 viable cells injected (as determined by in vitro colony-forming ability) and were analyzed using statistical tests for non-parametric values.

[7] = test system: Bl6F10 mouse melanoma cells; test: In vitro colony-forming ability of treated Bl6F10 melanoma cells; assay type: cell-based; conditions: 8-Br-cGMP treatment
Procedure: as §1, §2

[8] = test system: MDA-MB-231 breast carcinoma spheroids; test: Clonogenic survival of MDA-MB-231 spheroids after doxorubicin; assay type: cell-based, human
Procedure: Following initial cell plating, spheroids formed for 24, 48, 72, 96 or 120 h. At each time point, spheroids were exposed to 200 μM of doxorubicin, then disaggregated and plated for assessment of colony formation (survival).
Spheroids were allowed to form for 72 h. DETA/NO was applied for the final 24 h of spheroid formation. Spheroids were then exposed to doxorubicin for 1 h, prior to disaggregation and plating for assessment of survival by clonogenic assay.
Using human MDA-MB-231 breast carcinoma cells in clonogenic assays, survival was determined following doxorubicin exposure and NO mimetic administration to both monolayer and spheroid cultures.

[9] = 8-Br-cGMP 0.1 μM-10 μM, 24 hours, dose-dependent
[10] = 8-Br-cGMP 10^−3-10^−7 M, 0.5% O2 or DFO 100 μM

## COC(=O)[C@@]1(OC)C[C@H]2O[C@]1(C)n1c3ccccc3c3c4c(c5c6ccccc6n2c5c31)C(=O)N(C)C4 [KT5823]
[1]; KT5823 10 μM
  effect on the effects of 8-Br-cGMP on uPAR expression: significantly blunted
[1]; KT5823 10 μM, 6 hours, 20% O2
  increase in uPAR mRNA expression: 1.8 fold
[2]; KT5823 10 μM, 6 hours, 20% O2
  increase in uPAR protein expression: 1.8 fold

## N[C@@H](CCC(=O)N[C@@H](CSN=O)C(=O)NCC(=O)O)C(=O)O [S-nitroso-L-glutathione]
[3]
  IC50: 211 µM

## O=S(=O)(NCCNC/C=C/c1ccc(Br)cc1)c1cccc2cnccc12 [H-89]
[1]; H-89 1 μM with forskolin 10 μM
  effect of forskolin on uPAR expression: prevented
[1]; H-89 1 μM, independent of oxygenation
  uPAR expression: up-regulation
[4]; H-89 1 μM alone
  invasiveness: independently enhanced invasiveness
[4]; H-89 1 μM with forskolin 10 μM
  effect of forskolin on invasion: prevented

## CC(=O)N(O)CCCCCNC(=O)CCC(=O)N(O)CCCCCNC(=O)CCC(=O)N(O)CCCCCN.CS(=O)(=O)O [DFO, Desferoxamine mesylate]
[1]; cells cultured in the presence of DFO
  increase in uPAR mRNA levels: 4 fold

## sodium trioxodinitrate (II) monohydrate
[5]
  cell viability: did not significantly affect cell viability

## Nc1nc2c(nc(Br)n2[C@@H]2O[C@@H]3COP(=O)(O)O[C@H]3[C@H]2O)c(=O)[nH]1 [8-Br-cGMP, 8-bromoguanosine 3′:5′-cyclic monophosphate]
[1]; [9]
  reduction of hypoxic upregulation of uPAR mRNA expression: up to 100%
[1]; [10]
  effect on hypoxia- and DFO-induced uPAR expression, mRNA level: significantly abrogated
[1]; 8-Br-cGMP (1 mM) as printed
  DFO-induced upregulation of uPAR mRNA expression: complete inhibition
[2]; [9]
  reduction of hypoxic upregulation of uPAR protein expression: up to 100%
[2]; [10]
  effect on hypoxia- and DFO-induced uPAR expression, protein level: significantly abrogated
[4]; 0.1 μM-1 mM, 24-h, 0.5% O2
  effect of hypoxia on invasiveness: completely inhibited
[4]; 8-Br-cGMP
  hypoxia-associated invasion: significantly inhibit
[6]
  hypoxic induction of metastatic lung nodules: completely abrogated
[7]
  viability of the cells (colony formation assay): did not affect the viability

## O=NN(O)S(=O)(=O)O [N-nitrosohydroxylamine-N-sulfonate]
[5]
  cell viability: did not significantly affect cell viability

## CCN(CC)[N+]([O-])=NO [diethylamine-bis(nitric oxide) adduct sodium salt]
[5]
  cell viability: did not significantly affect cell viability

## O=c1onc2cnc3ccccc3n12 [ODQ, 1H-[1,2,4]Oxadiazolo-[4,3-a]Quinoxalin-1-One]
[1]; ODQ 0.5 μM
  effect on ability of GTN (10^−6 M) to abrogate hypoxic induction of uPAR, mRNA level: substantially prevented
[1]; ODQ 0.5 μM, 24 hours, vs 20% O2 alone
  increase in uPAR mRNA levels: 2.7 fold
[2]; ODQ 0.5 μM
  effect on ability of GTN (10^−6 M) to abrogate hypoxic induction of uPAR, protein level: substantially prevented

## CC(C)N[N+]([O-])=N[O-].[Na+] [isopropylamine-bis(nitric oxide) adduct sodium salt]
[5]
  cell viability: did not significantly affect cell viability

## N=c1c[n+](N2CCOCC2)[n-]o1 [3-morpholinosydnonimine]
[3]
  IC50: 490 µM

## NCCN(CCN)/[N+]([O-])=N/O [DETA, Diethylenetriamine/nitric oxide adduct]
[8]
  attenuation of resistance to 200 μM doxorubicin associated with 3D culture: 90%
[8]; DETA 0.1 mM and 2 μM, GTN 0.1 nM and 1 μM
  survival of control (doxorubicin-untreated) cells: did not affect the survival

## CCCN(CCCN)N(O)N=O [3-(n-propylamino)propylamine bis(nitric oxide) adduct]
[5]
  cell viability: did not significantly affect cell viability

— patent publication US8168232B2, “Formulations and methods of using nitric oxide mimetics in cancer treatment” (priority 2000, dated 2012)
